According to ChEMBL document CHEMBL4251605, “2-Substituted 7-trifluoromethyl-thiadiazolopyrimidones as alkaline phosphatase inhibitors. Synthesis, structure activity relationship and molecular docking study” (Eur J Med Chem, 2018):

Assays:
Format in all cases: cell-based
[1] = target: T1, Alkaline phosphatase, tissue-nonspecific isozyme (Homo sapiens, UniProt P05186); experiment: Inhibition of human TNAP expressed in COS7 cells preincubated for 5 to 7 mins followed by CDP-star substrate addition measured after 15 to 20 mins by luminescence assay
T1 sequence (P05186 whole entry): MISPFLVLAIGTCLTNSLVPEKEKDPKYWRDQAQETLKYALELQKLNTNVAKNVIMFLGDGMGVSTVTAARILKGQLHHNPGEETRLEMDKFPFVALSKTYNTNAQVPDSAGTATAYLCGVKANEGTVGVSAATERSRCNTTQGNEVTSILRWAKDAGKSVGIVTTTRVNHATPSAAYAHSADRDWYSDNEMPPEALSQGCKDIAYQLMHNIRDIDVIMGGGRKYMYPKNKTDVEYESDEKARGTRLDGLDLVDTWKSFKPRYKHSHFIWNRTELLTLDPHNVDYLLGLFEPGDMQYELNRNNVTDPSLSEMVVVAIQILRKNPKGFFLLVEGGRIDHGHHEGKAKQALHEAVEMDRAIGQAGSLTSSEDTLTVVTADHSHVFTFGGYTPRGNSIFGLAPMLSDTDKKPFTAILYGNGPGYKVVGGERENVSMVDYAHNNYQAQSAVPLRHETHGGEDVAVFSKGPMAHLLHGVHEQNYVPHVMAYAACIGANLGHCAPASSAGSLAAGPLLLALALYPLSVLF

[2] = target: Intestinal-type alkaline phosphatase (Homo sapiens, UniProt P09923); experiment: Inhibition of human IAP expressed in COS7 cells preincubated for 5 to 7 mins followed by CDP-star substrate addition measured after 15 to 20 mins by luminescence assay
Chain of Intestinal-type alkaline phosphatase (P09923 whole entry): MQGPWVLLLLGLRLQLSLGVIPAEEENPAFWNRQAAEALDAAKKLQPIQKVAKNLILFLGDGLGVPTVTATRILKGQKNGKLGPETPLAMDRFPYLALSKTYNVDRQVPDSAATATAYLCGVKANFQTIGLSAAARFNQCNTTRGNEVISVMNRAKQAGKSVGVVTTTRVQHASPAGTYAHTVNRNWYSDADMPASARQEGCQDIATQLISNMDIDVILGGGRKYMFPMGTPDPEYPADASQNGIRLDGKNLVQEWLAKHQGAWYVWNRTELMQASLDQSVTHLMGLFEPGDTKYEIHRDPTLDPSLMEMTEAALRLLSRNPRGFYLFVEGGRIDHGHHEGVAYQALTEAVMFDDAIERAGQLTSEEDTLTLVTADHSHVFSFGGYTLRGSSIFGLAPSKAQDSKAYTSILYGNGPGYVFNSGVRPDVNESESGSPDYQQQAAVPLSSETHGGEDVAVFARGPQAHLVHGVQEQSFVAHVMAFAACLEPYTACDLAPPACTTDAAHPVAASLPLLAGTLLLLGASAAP

Homo sapiens = organism: Homo sapiens; experiment: Selectivity ratio of IC50 for human IAP expressed in COS7 cells to IC50 for human TNAP expressed in COS7 cells

Row | SMILES | IC50 [1] [nM] | IC50 [2] [nM] | Ratio IC50 (Homo sapiens)
1 | CCCCNc1nn2c(=O)cc(C(F)(F)F)nc2s1 | 880 | 710 | –
2 | COc1cccc(Nc2nn3c(=O)cc(C(F)(F)F)nc3s2)c1 | 380 | 440 | –
3 | CCOc1ccccc1-c1nn2c(=O)cc(C(F)(F)F)nc2s1 | 4520 | > 100000 | –
4 | O=c1cc(C(F)(F)F)nc2sc(-c3cccc(F)c3)nn12 | 1390 | 740 | –
5 | Nc1ccc(Nc2nn3c(=O)cc(C(F)(F)F)nc3s2)cc1 | 330 | 710 | –
6 | COc1cc(OC)cc(-c2nn3c(=O)cc(C(F)(F)F)nc3s2)c1 | 1150 | 760 | –
7 | CC(C)c1ccc(Nc2nn3c(=O)cc(C(F)(F)F)nc3s2)cc1 | 1980 | 31500 | –
8 | O=c1cc(C(F)(F)F)nc2sc(-c3cccc([N+](=O)[O-])c3)nn12 | 620 | 480 | –
9 | O=c1cc(C(F)(F)F)nc2sc(-c3cccc(-c4ccccc4)c3)nn12 | 1120 | 1670 | –
10 | O=c1cc(C(F)(F)F)nc2sc(-c3ccccc3)nn12 | 210 | 430 | –
11 | CCCNc1nn2c(=O)cc(C(F)(F)F)nc2s1 | 1440 | 310 | –
12 | CCCCN(CCCC)c1nn2c(=O)cc(C(F)(F)F)nc2s1 | 1530 | 4630 | –
13 | COc1ccccc1-c1nn2c(=O)cc(C(F)(F)F)nc2s1 | 3480 | > 100000 | –
14 | COc1ccc(-c2nn3c(=O)cc(C(F)(F)F)nc3s2)cc1 | 280 | 480 | –
15 | Cc1ccc(-c2nn3c(=O)cc(C(F)(F)F)nc3s2)cc1 | 1060 | 360 | –
16 | N[C@@H](Cc1ccccc1)C(=O)O [PHENYLALANINE] | – | 80200 | –
17 | CN(C)CCNc1nn2c(=O)cc(C(F)(F)F)nc2s1 | 450 | 3750 | –
18 | CCCCCNc1nn2c(=O)cc(C(F)(F)F)nc2s1 | 610 | 760 | –
19 | O=c1cc(C(F)(F)F)nc2sc(-c3ccccc3F)nn12 | > 100000 | > 100000 | –
20 | Cc1ccc(-c2nn3c(=O)cc(C(F)(F)F)nc3s2)cc1C | 540 | 1750 | –
21 | CCc1ccc(-c2nn3c(=O)cc(C(F)(F)F)nc3s2)cc1 | > 100000 | 4550 | –
22 | Cc1cc(C)cc(-c2nn3c(=O)cc(C(F)(F)F)nc3s2)c1 | 520 | 460 | –
23 | O=c1cc(C(F)(F)F)nc2sc(-c3ccc(OC(F)(F)F)cc3)nn12 | > 100000 | 240 | –
24 | CN(N)c1nn2c(=O)cc(C(F)(F)F)nc2s1 | 2020 | 2220 | –
25 | N#Cc1cccc(-c2nn3c(=O)cc(C(F)(F)F)nc3s2)c1 | 560 | 1120 | –
26 | CCOc1ccc(Nc2nn3c(=O)cc(C(F)(F)F)nc3s2)cc1 | 1580 | 2020 | –
27 | CCOc1ccc(-c2nn3c(=O)cc(C(F)(F)F)nc3s2)cc1 | 930 | 790 | –
28 | C=CCNc1nn2c(=O)cc(C(F)(F)F)nc2s1 | 290 | 890 | 3
29 | O=c1cc(C(F)(F)F)nc2sc(-c3cccc(C(F)(F)F)c3)nn12 | 520 | 680 | –
